Data set [1] has as its system iCell cardiomyocyte CM2 (human iPS cell-derived cardiomyocytes). Put plainly: Drug safety test-1: arrhythmia measurement by Ca-imaging (CQ1). The settings on record: for duration (20% waveform width of Ca transient) / interval between peaks of Ca transient: cumulative dose1-dose3 of Table 2. It counts as cell-based. The procedure: (§1) The drug was dissolved in DMSO and cumulatively administered. First, the measurement as dose0 was performed without adding drugs. […] Subsequently, immediately after the measurement, the drug was added to the same well, respectively so that the concentration was dose2, and the measurement was performed after 15 minutes. The same was done for dose3.
(§2) For the cell responsiveness after the drug administration, an arrhythmia measurement method by Ca-imaging using a confocal imaging device (CQ1, manufactured by Yokogawa Electric Corporation) and a motion test method using a live cell imaging device (SI8000, manufactured by Sony Corporation) were performed to investigate the effect on the beating rate and the line width of the beating peak.
To CM2 on day 6 of maintenance culture, a fluorescent Ca indicator (EarlyTox carditotoxicity kit, manufactured by Molecular Devices, LLC.) was added, and living cells were stained. First, the change in Ca fluorescence intensity associated with the contraction of cardiomyocytes was measured as Dose0 in CQ1 without adding drugs. Immediately after the measurement, each drug at the concentration of Dose1 was added to the same well plate, and the change in Ca fluorescence intensity was measured after 15 minutes. For Dose2 and Dose3, the drug was cumulatively administered in the same manner, and the change in Ca fluorescence intensity was measured. The addition test of each drug was performed at n=6.
The significant difference test was performed between the subject group in which DMSO was added and the drug addition group in CM2 cultured in the planar plate and CM2 cultured the aligned plate.
For the side effects seen from the waveform changes of Ca transient, early after depolarization (EAD) and delayed after depolarization (DAD), small regular waveforms (VT-like), and reaction (waveform) disappearance were recorded. The“−” in the table indicates the state in which no arrhythmia or the like has occurred. The degree of arrhythmia is mild for EAD, moderate for DAD, and severe for vt-like.

Data set [2] relates to CM2 (human iPS cell-derived cardiomyocytes). Put plainly: Measurement of oxygen consumption rate with β-oxidation inhibitor. Type of data set: cell-based. The settings on record: day 27, 50 μM; for OCR with addition of Etomoxir: 10 to 70 minutes. The procedure:
The measurement was performed using an oxygen consumption rate plate assay kit (manufactured by DOJINDO LABORATORIES, E297).
To the well plate in which CM2 was cultured, an oxygen probe diluted with medium was added and allowed to stand for 30 minutes in a plate reader incubated at 37° C. in advance. Next, a sample solution containing a β-oxidation inhibitor Etomoxir that inhibits a fatty acid metabolism enzyme at the final concentration 50 μM was added, and mineral oil was immediately added dropwise to block the supply of oxygen.
After allowing the well plate to stand for 5 minutes in a plate reader incubated at 37° C., the fluorescence intensity was measured over time. The fluorescent plate reader was measured under conditions of an excitation wavelength of 495 nm/fluorescence wavelength of 650 nm, and the data acquisition was performed for at least 168 minutes every 10 minutes.
The measurement was performed with 6 wells without addition of Etomoxir as control and 3 wells with addition of 50 μM Etomoxir.
The oxygen concentration (pmol) was calculated with the calculation sheet attached to the oxygen consumption rate plate assay kit, and the oxygen consumption rate (pmol/min) was calculated from the oxygen concentration reduction amount for 60 minutes of 10 to 70 minutes after the start of the measurement.

Data set [3] relates to iCell cardiomyocyte CM2 (human iPS cell-derived cardiomyocytes). The experiment in a line: Drug safety test-3 (anti-cancer drug): motion test method using live cell imaging device, CM2 cultured for 15 days. The note with it: 3 μM; for beating rate (BR), change rate vs pre-measurement: day 15, after 24 and 48 hours.
Procedure: iCell cardiomyocytes (iCell Cardiomyocyte v2.0, manufactured by FUJIFILM Cellular Dynamics, Inc.) were used as human iPS cell-derived cardiomyocytes (hereinafter referred to as CM2). The culture was performed by the following procedure.
In the same procedure as in the above (10), CM2 was seeded at a concentration of 6×10^4 cells/well in the aligned plate (96 well plate, ND Cell Aligner) and the planar plate (96 well plate). A maintenance culture was performed in a 37° C. CO2 incubator, and the drug was administered on day 15 with setting the day of seeding as day 0.
The drug was dissolved in DMSO and administered. First, as a pre-measurement, a measurement was performed without adding the drug. Immediately after the measurement, the drug dissolved in DMSO was added to each well so that the concentration was 3 PM, and the measurement was performed after 24 hours and 48 hours. The measurement was performed in the same manner as the (10-1) measurement by motion test method using live cell imaging device described above.
For the measurement data, the measurement value at the concentration of 3 μM was corrected with the average value of the pre-measurement without adding the drug (measurement value at 3 μM/measurement value of pre-measurement), and the change rate with setting the measurement value of the pre-measurement as 1 was determined.
In addition, a T test was performed between the planar plate and the aligned plate in the drug addition group. For the comparison group with a P value of 0.01 or less, the graph was marked.
DMSO used as the solvent was added so that the final concentration was 0.01%. The effect of DMSO was confirmed by measuring 0.01% DMSO addition group after 24 hours and 48 hours. The measurement data were processed in the same manner as the drug addition group.
The test system is the same in data set [4]. The experiment in a line: Drug safety test-1: motion test method using live cell imaging device (SI8000). Type of data set: cell-based. The settings on record: for CRD (corrected with beating rate): Dose1 1 μM, Dose2 3 μM, Dose3 10 μM; for beating rate (BR) / relaxation velocity (RV): day 5, cumulative dose1-dose3 of Table 2; for CRD (corrected with the beating rate): Dose2 0.3 μM and Dose3 1 μM, vs DMSO group. The procedure: as §1, §2
CM2 on day 5 of maintenance culture was used, and video data was first obtained as Dose0 using SI8000 (manufactured by Sony Corporation) without adding drugs. Immediately after the measurement, each drug at the concentration of dose1 was added to the same well plate, and video data was obtained after 15 minutes. For Dose2 and Dose3, the drug was cumulatively administered in the same manner, and video data was obtained. The addition test of each drug was performed at n=6.
The beating rate (BR), the contractile velocity (CV), the relaxation velocity (RV), and the contraction-relaxation duration (CRD) were analyzed from the video data of S18000, and the effects of the drugs on the motion of the cells were compared. The contraction-relaxation duration (CRD) was corrected by the following equation with reference to the equation of Frederica to correct variation due to the beating rate (BR).
For the side effects seen from the change in the parameters of SI8000, early after depolarization (EAD) and delayed after depolarization (DAD), small regular waveforms (VT-like), and reaction (waveform) disappearance were recorded. Changes in waveforms not classified into EAD or DAD were described as arrhythmia. The “-” in the table indicates the state in which no arrhythmia or the like has occurred.
The degree of arrhythmia is mild for EAD, moderate for DAD, and severe for vt-like.

The subject of data set [5] is iCell cardiomyocytes CM2 (human iPS cell-derived cardiomyocytes). The experiment in a line: Drug safety test-2: motion test method using live cell imaging device, CM2 cultured for 15 days. It counts as cell-based. The settings on record: for beating rate (BR), relative to dose0 / contractile velocity (CV), relative to dose0 / relaxation velocity (RV), relative to dose0: day 15, doses of Table 7, 120 min isoproterenol, 15 min milrinone. The procedure: The drug used was isoproterenol and milrinone. […] First, the measurement as dose0 was performed without adding drugs.
For the cell responsiveness after drug administration, a motion test method using a live cell imaging device (SI8000, manufactured by Sony Corporation) was performed to investigate the effect on the beating rate, the contractile velocity, and the relaxation velocity.
CM2 on day 15 of maintenance culture was used, and video data was first obtained as dose0 using SI8000 (manufactured by Sony Corporation) without adding drugs. Immediately after the measurement, each drug at the concentration of each dose was added to the same well plate, and video data was obtained after 120 minutes for isoproterenol and after 15 minutes for milrinone. The addition test of each drug was performed at n=5.
The beating rate (BR), the contractile velocity (CV), and the relaxation velocity (RV) were analyzed from the video data of SI8000, and the effects of the drugs on the motion of the cells were compared.
The measurement data was corrected with the average value of dose0 of no adding drugs (each measurement value/measurement value of dose0), and the relative value with setting the measurement value of dose0 as 1 was determined.

Setting [6] is: aligned and planar plates, day 6.

Regarding `C=C[C@H]1C[N@@]2CC[C@H]1C[C@@H]2[C@@H](O)c1ccnc2ccc(OC)cc12` [Quinidine], the “incidence of moderate to severe arrhythmia (DAD, VT-like)” value was 0/6 in data set [1] (aligned plate, quinidine Dose1, 3 μM, wells of 6); 0/6 in data set [1] (aligned plate, quinidine Dose2, 10 μM, wells of 6); 6/6 in data set [1] (aligned plate, quinidine Dose3, 30 μM, wells of 6). Moreover, the “incidence of moderate to severe arrhythmia” value is reported as 0/6 in data set [1] (planar plate, quinidine Dose1, 3 μM, wells of 6); 0/6 in data set [1] (planar plate, quinidine Dose2, 10 μM, wells of 6); 4/6 in data set [1] (planar plate, quinidine Dose3, 30 μM, wells of 6). The “duration of Ca transient, planar plate compared to aligned plate” value in data set [1] (quinidine Dose2, 10 μM) is on record as “longer extension”. Besides, the “interval of Ca transient, planar plate compared to aligned plate” value in data set [1] (quinidine Dose2, 10 μM) was “longer extension”. The “peak height of Ca transient, planar plate compared to aligned plate” value in data set [1] (quinidine Dose2, 10 μM) was “significantly weaker decrease”. Moreover, in data set [1] (quinidine Dose3, 30 μM), the contraction force entry is recorded as “greatly reduced”. For the same compound, the “waveform of Ca transient” value in data set [1] (quinidine Dose3, 30 μM) was “changed to a higher frequency waveform”.

Regarding `COc1cc(N)c(Cl)cc1C(=O)NC1CCN(CCCOc2ccc(F)cc2)CC1OC` (stereo not drawn) [Cisapride], the “duration (20% waveform width of Ca transient)” value in data set [1] (setting [6]) is “extended in a dose-dependent manner”. For the same compound, in data set [1] (setting [6]), the “interval between peaks of Ca transient” value is listed as “extended in a dose-dependent manner”. Moreover, the incidence of arrhythmia was 1/6 in data set [1] (aligned plate, cisapride Dose1 0.01 μM to Dose3 0.1 μM, wells of 6) and “No arrhythmia occurred” in data set [1] (planar plate, cisapride 0.01-0.1 μM). The “difference between the value at Dose0 and at Dose3 (duration, interval), aligned plate versus planar plate” value in data set [1] (cisapride, Dose3 0.1 μM) is listed as “smaller”.

With `CCOC(=O)[C@@]1(CCCCCCOc2ccc(Cl)cc2)CO1` [Etomoxir], in data set [2] (aligned plate), the “OCR compared to OCR before addition” value amounted to 11.0% and the “OCR with addition of Etomoxir” value was determined as 7.0 pmol/min. In data set [2] (planar plate), the “OCR compared to OCR before addition” value stood at 98.3% and the “OCR with addition of Etomoxir” value turned out to be 77.8 pmol/min.

In the case of `COc1cccc2c1C(=O)c1c(O)c3c(c(O)c1C2=O)C[C@@](O)(C(=O)CO)C[C@@H]3O[C@H]1C[C@H](N)[C@H](O)[C@H](C)O1` [Doxorubicin, doxorubicin], in data set [3], the “beating rate, aligned plate compared to planar plate” value is on record as “significantly increased” and the “beating rate, result after 48 hours compared with after 24 hours” value is “more increased”. In addition, the “RV, aligned plate compared to planar plate” value in data set [3] (after 48 hours) is recorded as “significantly increased”. Moreover, in data set [3] (aligned plate), the “relaxation velocity (RV), change rate vs pre-measurement” value was “increased” and the “beating rate (BR), change rate vs pre-measurement” value is recorded as “increased”. In data set [3] (planar plate), the “relaxation velocity (RV), change rate vs pre-measurement” value is on record as “increased” and the “beating rate (BR), change rate vs pre-measurement” value was “increased”.

Consider `CC(C)NCC(O)c1ccc(O)c(O)c1` (stereo not drawn) [Isoproterenol], for which, in data set [4] (aligned and planar plate, any concentration (1, 3, 10 μM)), the “arrhythmia or the like” value is “No arrhythmia or the like was observed”. Also, in data set [4] (aligned plate), the “CRD (corrected with beating rate)” value was “extended”, the “beating rate (BR)” value is recorded as “tended to increase” and the “relaxation velocity (RV)” value is reported as “tended to increase”. For the same compound, the “change of CRD compared with the solvent (DMSO)” value in data set [4] (planar plate, 1, 3, 10 μM) was “largely different from that of the solvent (DMSO)”. Also, in data set [4] (planar plate), the “CRD (corrected with beating rate)” value was “extended”, the “beating rate (BR)” value is given as “tended to increase” and the “relaxation velocity (RV)” value is “tended to increase”. Moreover, in data set [5] (aligned plate), the “beating rate (BR), relative to dose0” value is recorded as “increased”; the “contractile velocity (CV), relative to dose0” value is reported as “increased”; the “relaxation velocity (RV), relative to dose0” value is listed as “increased”. For the same compound, the “relaxation velocity, aligned plate compared to planar plate” value in data set [5] (isoproterenol dose2 (0.3 μM) and dose3 (3 μM)) was “increased”. In data set [5] (planar plate), the “beating rate (BR), relative to dose0” value is “increased”; the “contractile velocity (CV), relative to dose0” value is given as “tended to reduce”; the “relaxation velocity (RV), relative to dose0” value is “increased”. In data set [1] (setting [6]), the “duration (20% waveform width of Ca transient)” value is recorded as “Reduction was observed” and the “interval between peaks of Ca transient” value is recorded as “Reduction was observed”. The arrhythmia result in data set [1] (aligned and planar plates, up to high concentration (Dose3, 10 μM)) is reported as “arrhythmia did not occur”. Besides, the reduction in duration result in data set [1] (planar plate, isoproterenol 1, 3, 10 μM) was “small”.

Take `Cc1cccc(CCN2CCC(C(=O)c3ccc(NS(C)(=O)=O)cc3)CC2)n1` [E-4031]: in data set [4] (aligned plate), the “CRD (corrected with the beating rate)” value is listed as “significantly reduced”, the “beating rate (BR)” value is recorded as “reduced” and the “relaxation velocity (RV)” value is “reduced”. Also, in data set [4] (planar plate), the “CRD (corrected with the beating rate)” value is “significantly reduced”, the “beating rate (BR)” value is “reduced” and the “relaxation velocity (RV)” value is on record as “reduced”. Further, the “CRD (corrected with the beating rate), planar plate compared with aligned plate” value in data set [4] (planar plate, E-4031) is given as “reduced more remarkably”. In addition, in data set [1] (E-4031 0.1 μM, day 6), the “Duration of Ca transient, planar plate compared with aligned plate” value is given as “slightly longer”. Further, in data set [1] (E-4031 0.3 μM, day 6), the “Duration of Ca transient, planar plate compared with aligned plate” value is recorded as “significantly longer”. Besides, the “Duration of Ca transient, planar plate” value in data set [1] (E-4031 1 μM, day 6) is recorded as “not significantly but remarkably extended”.

In the case of `Cc1[nH]c(=O)c(C#N)cc1-c1ccncc1` [Milrinone], in data set [5] (aligned plate), the “beating rate (BR), relative to dose0” value was “increased”; the “contractile velocity (CV), relative to dose0” value was “increased”; the “relaxation velocity (RV), relative to dose0” value is recorded as “increased”. In addition, the “RV, aligned plate compared to planar plate” value in data set [5] (milrinone) was “significantly increased”. In data set [5] (milrinone dose3 (300 μM)), the “contractile velocity (CV), aligned plate compared to planar plate” value is on record as “significantly increased” and the “relaxation velocity (RV), aligned plate compared to before the drug addition” value is reported as “predominantly increased”. In data set [5] (milrinone, all doses (30, 100, 300 μM)), the “beating rate (BR), aligned plate compared to before the drug addition” value is reported as “predominantly increased”. Also, in data set [5] (planar plate), the “beating rate (BR), relative to dose0” value is given as “did not change”; the “contractile velocity (CV), relative to dose0” value is “tended to reduce”; the “relaxation velocity (RV), relative to dose0” value is given as “tended to reduce”.

Source of the values: US20260002931A1, “CULTURED CELL SHEET AND METHOD FOR PRODUCING SAME; METHOD FOR EVALUATING COMPOUND OR DRUG; AND METHOD FOR EVALUATING QUALITY OF CULTURED CELL SHEET” (OJI HOLDINGS CORPORATION, priority 2022, published 2026).
